Experimental data taken from patent US20190169218A1, “AMPHIPATHIC COMPOUND HAVING NOVEL PENTA-SACCHARIDE HYDROPHILIC GROUP AND USE THEREOF” (Industry-University Cooperation Foundation Hanyang …, priority 2016, published 2019).

Legend:
[1] = target: T1, boron transporter (BOR1) BOR1-GFP fusion protein (Arabidopsis thaliana, UniProt Q8VYR7); assay: solubilization (extraction) of BOR1-GFP fusion protein from membranes; conditions: amphipathic compound at 1.0 wt %
T1 construct: made in house; host or cells: Saccharomyces cerevisiae FGY217
Method: The ability of PSAs and PSEs to solubilize membrane proteins and to stabilize the structures of membrane proteins was evaluated using boron transporter (BOR1), a membrane protein. BOR1 was isolated from Arabidopsis thaliana, and was expressed in the form of a fusion protein having a GFP tag at the C-terminus in Saccharomyces cerevisiae FGY217 cells. This fusion protein has been proven to have boron transporting activity and is therefore involved in both structural and functional analysis of membrane proteins.
The ability of amphipathic compound PSAs and PSEs to solubilize the boron transporter (BOR1) membrane protein was evaluated.
Specifically, membranes containing BOR1-GFP fusion proteins were treated with an existing amphipathic compound (DDM), PSAs (PSA-C9, PSA-C10 and PSA-C11), or PSEs (PSE-C9, PSE-C11 and PSE-C13) at a concentration of 1.0 wt %. The solubilization efficiencies of PSA-C9, PSA-C10 and PSE-C9 were about 80% similar to the solubilization efficiency of DDM. In particular, the BOR1-GFP protein was quantitatively extracted (˜100%) using PSE-C11 having medium length chains, thus confirming that PSE-C11 is particularly useful for solubilization of BOR1-GFP.
Specifically, Arabidopsis thaliana-derived BOR1 was expressed in the form of a fusion protein having a GFP tag at the C-terminus in Saccharomyces cerevisiae FGY217 cells. The cells were grown in an URA-medium supplemented with 0.1% glucose. 2% galactose was added to the cell culture to induce protein expression and the cells were cultured at 20° C. for 18 hours (see Drew, D. et al., Nat. Protoc. 2008, 3, 784-798.). After culture, the cells were harvested and used to obtain the cell membranes (see Leung, J. et al., Protein Expr. Purif. 2010, 72, 139-146.). Membranes containing BOR1-GFP fusion proteins were diluted to a final total protein concentration of 2.8 mg/mL in PBS (pH7.4) supplemented with 1 wt % DDM, 1 wt % PSAs (PSA-C9, PSA-C10 or PSA-C11) or 1 wt % PSEs (PSE-C9, PSE-C11 or PSE-C13). The diluted samples were incubated at 4° C. for 1 hour with gentle shaking, and insoluble substances were removed by centrifugation at 14,000 g for 1 hour at 4° C. Supernatants containing the dissolved protein samples were incubated for 10 minutes at the specified temperature (35, 40, 45 or 50° C.), and strongly agglutinated proteins were removed by centrifugation at 14,000 g for 10 minutes at 4° C. 200 μL aliquots were taken from the supernatant and injected into a Superose 6 10/300 column equilibrated with 20 mM Tris-HCl (pH 7.5), 150 mM NaCl and 0.03% DDM. Each elution fraction was collected from a retention volume of 6.4 mL (i.e., after 6.4 mL of solution had passed), and added to a well of a clear bottom 96-well plate at a volume of 200 μL. GFP fluorescence generated in each fraction was measured using an excitation wavelength of 470 nm and an emission wavelength of 512 nm.

[2] = target: T2, human β2 adrenergic receptor (β2AR) (Homo sapiens, UniProt P07550); assay: extraction and solubilization of β2AR directly from cell membranes ([3H]-DHA activity, SEC); conditions: for SEC peak of extracted β2AR: buffer not containing amphipathic compounds
T2 construct: Flag; made in house
Method: The best, PSE-C11, among tested PSAs/PSEs was used to extract β2ARs directly from the cell membranes. Receptors were treated with 1.0 wt % PSE-C11 or DDM, and the activity of the receptors solubilized in PSE-C11 or DDM was measured using a radiolabeled ligand, [^3H]-DHA.
Specifically, experiments to extract and solubilize receptors from the cell membranes were performed as follows. 10 mL of a PSE-C11 amphipathic compound buffer (20 mM HEPES (pH 7.5), 100 mM NaCl, 1.0 wt % PSE-C11) was added to 1 g of an insect cell (Sf9) pellet expressing β2ARs. The mixture was stirred for solubilization for 1 hour. After performing centrifugation at 12,000 g for 20 minutes, a supernatant was collected and loaded onto a M1 Flag column in the presence of 2 mM CaCl2. The column was washed with a PSE-C11 buffer (20 mM HEPES (pH 7.5), 100 mM NaCl, 0.2 wt % amphipathic compound). Receptors were eluted with 20×CMC PSE-C11, 5 mM EDTA and 0.2 mg/mL free Flag peptides. To measure the activity of the receptors solubilized and purified by DDM or PSE-C11, 0.2 pmol of β2ARs was incubated with […] [^3H]-DHA and each amphipathic compound at room temperature for 30 minutes, and the activity of β2ARs was measured. The following procedure was performed in the same manner as described in Example 9-3. Each measurement was performed three times. The receptors solubilized in 20×CMC PSE-C11 or 20×CMC DDM were also applied to SEC under a buffer (20 mM HEPES (pH 7.5), 100 mM NaCl) not containing an amphipathic compound (PSE-C11 or DDM).

T2 sequence (P07550 whole entry): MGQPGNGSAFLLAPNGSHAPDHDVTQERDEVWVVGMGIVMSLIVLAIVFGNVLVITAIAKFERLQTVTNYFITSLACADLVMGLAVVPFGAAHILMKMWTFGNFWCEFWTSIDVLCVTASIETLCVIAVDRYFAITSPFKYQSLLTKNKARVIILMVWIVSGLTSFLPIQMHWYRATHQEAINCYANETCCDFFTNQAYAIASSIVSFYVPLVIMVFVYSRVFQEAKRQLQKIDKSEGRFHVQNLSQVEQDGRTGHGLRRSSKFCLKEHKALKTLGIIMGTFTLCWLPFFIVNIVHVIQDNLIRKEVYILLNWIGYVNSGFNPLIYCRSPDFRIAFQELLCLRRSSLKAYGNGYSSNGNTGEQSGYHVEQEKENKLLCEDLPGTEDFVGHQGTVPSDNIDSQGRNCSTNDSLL

Row | SMILES | solubilization efficiency of BOR1-GFP [1] | SEC peak of extracted β2AR [2] | activity of β2AR extracted from cell membranes ([3H]-DHA) ([2]; 1.0 wt % PSE-C11 or DDM)
1 | CCCCCCCCCCCCO[C@@H]1O[C@H](CO)[C@@H](O[C@H]2O[C@H](CO)[C@@H](O)[C@H](O)[C@H]2O)[C@H](O)[C@H]1O [DDM, n-dodecyl-β-D-maltopyranoside, reference compound] | about 80% | no peak corresponding to the proteins was observed | 
2 | CCCCCCCCCCCOCC(COCCCCCCCCCCC)O[C@@H]1OC(CO[C@@H]2OC(CO)[C@@H](O)C(O)C2O)[C@@H](O[C@@H]2OC(CO)[C@@H](O)C(O)C2O)C(O[C@@H]2OC(CO)[C@@H](O)C(O)C2O)C1O[C@@H]1OC(CO)[C@@H](O)C(O)C1O (some centres unmarked) [PSE-C11] | ~100% | a distinct monodisperse peak | higher activity than proteins extracted by DDM
